Measured values reported in article PMC9395488, “First-in-human study of IM156, a novel potent biguanide oxidative phosphorylation (OXPHOS) inhibitor, in patients with advanced solid tumors” (Investigational New Drugs, 2022).

Tested on: patients with advanced solid tumors
Assay: First-in-human phase 1 dose-escalation study: safety, DLTs, adverse events
Assay type: in vivo
Description: This multicenter first-in-human dose-escalation phase 1 study (clinicaltrials.gov identifier: NCT03272256) was designed to determine the MTD or RP2D and to evaluate the safety and tolerability of IM156. Secondary endpoints included PK characteristics, efficacy assessment (objective response rate [ORR], disease control rate [DCR], duration of response [DoR] and progression-free survival [PFS]). Furthermore, exploratory objectives included identification and profiling of IM156 metabolites, evaluations of exploratory PD markers of IM156, and evaluations of any potential relationship between putative biomarkers and safety/efficacy parameters of IM156. The study was conducted in accordance with Good Clinical Practice, the International Council for Harmonisation, and guidelines governing clinical study conduct and the ethical principles originating from the Declaration of Helsinki. The study was approved by each Institutional Review Board and patients provided written informed consent. Patients were enrolled at three sites in South Korea.
The initial dose and schedule of IM156 was chosen based on animal toxicology studies. […] IM156 was administered in the fasted state, with no food for at least 2 h before and 1 h after dosing.
Three DLT-evaluable patients were enrolled at each dose level. If there were no DLTs or other prohibitive adverse events (AEs), the Safety Committee was allowed to recommend escalation to the next highest dose level. If 1 DLT occurred in the first 3 DLT-evaluable patients, enrollment in that cohort was expanded to an additional 3 DLT-evaluable patients; if ≥ 2 DLTs were reported in a cohort, that dose was considered above the MTD.
Safety was assessed through vital signs, weight, laboratory assessments, physical examinations, electrocardiogram, and reporting of AEs as graded by the National Cancer Institute’s Common Terminology Criteria for Adverse Events v4.03 (NCI-CTCAE).
DLTs were defined as the following AEs if they were attributed as related to IM156: asymptomatic grade 4 neutropenia lasting for ≥ 5 days; febrile neutropenia, regardless of grade; grade 4 thrombocytopenia or grade 3 thrombocytopenia with bleeding; any grade ≥ 3 non-hematologic AE (except grade 3 hypertension and grade 3 nausea, vomiting or diarrhea for which proper measures for prevention and treatment were not implemented, and alopecia); blood lactate levels > 5 mmol; grade ≥ 2 AE prohibiting dosing of IM156 for ≥ 21 continuous days except for alterations in serum calcium or phosphorus levels. The safety analysis includes all patients who received at least one dose of study drug.
The safety population was defined as all patients who received at least one dose of IM156. The PK population was not defined in the protocol but included all patients with sufficient PK data to perform adequate PK modeling. The efficacy population included all patients who underwent at least one tumor imaging assessment while receiving IM156. Safety was assessed using descriptive statistics (e.g., DLTs, AEs, laboratory tests, physical examination, 12-lead ECG). The incidence and number of events were reported for the DLTs observed in Cycle 1 per dose group. […] Adverse events and TRAEs were standardized with the System Organ Class and the Preferred Term using the Medical Dictionary for Regulatory Activities v23.0. In addition, TEAEs, serious adverse events (SAEs), TEAE severity, and TEAEs leading to withdrawal were presented by dose group. Efficacy data were to be presented by Waterfall and Swim Lane plots. Time to event endpoints (e.g., DoR, PFS) were determined using Kaplan–Meier estimations with the median value for each endpoint summarized.

Structure (SMILES): NC(=Nc1ccc(OC(F)(F)F)cc1)N=C(N)N1CCCC1 [IM156]
- TEAE Pain in extremity grade 4 (DL6 800 mg orally daily (n=3)): 0
- TEAE Pruritus grade 1 (DL6 800 mg orally daily (n=3)): 0
- TEAE Pruritus grade 2 (DL6 800 mg orally daily (n=3)): 0
- TEAE Pruritus grade 3 (DL6 800 mg orally daily (n=3)): 0
- TEAE Pruritus grade 4 (DL6 800 mg orally daily (n=3)): 0
- TEAE Psychiatric disorders grade 1 (DL6 800 mg orally daily (n=3)): 1
- TEAE Psychiatric disorders grade 2 (DL6 800 mg orally daily (n=3)): 0
- TEAE Psychiatric disorders grade 3 (DL6 800 mg orally daily (n=3)): 0
- TEAE Psychiatric disorders grade 4 (DL6 800 mg orally daily (n=3)): 0
- TEAE Purpura grade 1 (DL6 800 mg orally daily (n=3)): 0
- TEAE Purpura grade 2 (DL6 800 mg orally daily (n=3)): 0
- TEAE Purpura grade 3 (DL6 800 mg orally daily (n=3)): 0
- TEAE Purpura grade 4 (DL6 800 mg orally daily (n=3)): 0
- TEAE Urinary retention grade 1 (DL6 800 mg orally daily (n=3)): 0
- TEAE Urinary retention grade 2 (DL6 800 mg orally daily (n=3)): 0
- TEAE Urinary retention grade 3 (DL6 800 mg orally daily (n=3)): 0
- TEAE Urinary retention grade 4 (DL6 800 mg orally daily (n=3)): 0
- TEAE Urinary tract disorder grade 1 (DL6 800 mg orally daily (n=3)): 0
- TEAE Urinary tract disorder grade 2 (DL6 800 mg orally daily (n=3)): 0
- TEAE Urinary tract disorder grade 3 (DL6 800 mg orally daily (n=3)): 0
- TEAE Urinary tract disorder grade 4 (DL6 800 mg orally daily (n=3)): 0
- TEAE Abdominal pain, grade 2 (DL7 1200 mg QD (n=4)): 2
- TEAE Akathisia, grade 2 (DL7 1200 mg QD (n=4)): 1
- TEAE Alanine aminotransferase increased, grade 1 (DL7 1200 mg QD (n=4)): 1
- TEAE Aspartate aminotransferase increased, grade 1 (DL7 1200 mg QD (n=4)): 1
- TEAE Blood creatinine increased, grade 1 (DL7 1200 mg QD (n=4)): 2
- TEAE Blood lactic acid increased, grade 1 (DL7 1200 mg QD (n=4)): 1
- TEAE Constipation, grade 1 (DL7 1200 mg QD (n=4)): 1
- TEAE Decreased appetite, grade 2 (DL7 1200 mg QD (n=4)): 1
- TEAE Diarrhoea, grade 1 (DL7 1200 mg QD (n=4)): 2
- TEAE Dysesthesia, grade 1 (DL7 1200 mg QD (n=4)): 1
- TEAE Fatigue, grade 2 (DL7 1200 mg QD (n=4)): 3
- TEAE Gastritis, grade 1 (DL7 1200 mg QD (n=4)): 1
- TEAE Hemoptysis, grade 2 (DL7 1200 mg QD (n=4)): 1
- TEAE Hyperkalaemia, grade 3 (DL7 1200 mg QD (n=4)): 1
- TEAE Ileus, grade 2 (DL7 1200 mg QD (n=4)): 1
- TEAE Influenza like illness, grade 1 (DL7 1200 mg QD (n=4)): 1
- TEAE Lethargy, grade 2 (DL7 1200 mg QD (n=4)): 1
- TEAE Nausea, grade 2 (DL7 1200 mg QD (n=4)): 2
- TEAE Nausea, grade 3 (DL7 1200 mg QD (n=4)): 2
- TEAE Oedema peripheral, grade 2 (DL7 1200 mg QD (n=4)): 1
- TEAE Pain, grade 2 (DL7 1200 mg QD (n=4)): 1
- TEAE Platelet count decreased, grade 1 (DL7 1200 mg QD (n=4)): 1
- TEAE Pyrexia, grade 1 (DL7 1200 mg QD (n=4)): 2
- TEAE Pyrexia, grade 2 (DL7 1200 mg QD (n=4)): 1
- TEAE Vomiting, grade 1 (DL7 1200 mg QD (n=4)): 3
- TRAE Abdominal Pain, > G3 (patients) (DL7 1,200 mg QD, N = 4): 0
- TRAE Abdominal Pain, All grades (patients) (DL7 1,200 mg QD, N = 4): 1
- TRAE Blood Lactic Acid increased, > G3 (patients) (DL7 1,200 mg QD, N = 4): 0
- TRAE Blood Lactic Acid increased, All grades (patients) (DL7 1,200 mg QD, N = 4): 1
- TRAE Constipation, > G3 (patients) (DL7 1,200 mg QD, N = 4): 0
- TRAE Constipation, All grades (patients) (DL7 1,200 mg QD, N = 4): 1
- TRAE Decreased appetite, > G3 (patients) (DL7 1,200 mg QD, N = 4): 0
- TRAE Decreased appetite, All grades (patients) (DL7 1,200 mg QD, N = 4): 1
- TRAE Diarrhoea, > G3 (patients) (DL7 1,200 mg QD, N = 4): 0
- TRAE Diarrhoea, All grades (patients) (DL7 1,200 mg QD, N = 4): 1
- TRAE Fatigue, > G3 (patients) (DL7 1,200 mg QD, N = 4): 0
- TRAE Fatigue, All grades (patients) (DL7 1,200 mg QD, N = 4): 3
- TRAE Insomnia, > G3 (patients) (DL7 1,200 mg QD, N = 4): 0
- TRAE Insomnia, All grades (patients) (DL7 1,200 mg QD, N = 4): 0
- TRAE Nausea, > G3 (patients) (DL7 1,200 mg QD, N = 4): 2
- TRAE Nausea, All grades (patients) (DL7 1,200 mg QD, N = 4): 4
- TRAE Vomiting, > G3 (patients) (DL7 1,200 mg QD, N = 4): 0
- TRAE Vomiting, All grades (patients) (DL7 1,200 mg QD, N = 4): 3
- TEAE Adrenal insufficiency grade 1 (DL7 1200 mg orally daily (n=4)): 0
- TEAE Adrenal insufficiency grade 2 (DL7 1200 mg orally daily (n=4)): 0
- TEAE Adrenal insufficiency grade 3 (DL7 1200 mg orally daily (n=4)): 0
- TEAE Adrenal insufficiency grade 4 (DL7 1200 mg orally daily (n=4)): 0
- TEAE Anaemia grade 1 (DL7 1200 mg orally daily (n=4)): 0
- TEAE Anaemia grade 2 (DL7 1200 mg orally daily (n=4)): 1
- TEAE Anaemia grade 3 (DL7 1200 mg orally daily (n=4)): 1
- TEAE Anaemia grade 4 (DL7 1200 mg orally daily (n=4)): 0
- TEAE Appendicitis perforated grade 1 (DL7 1200 mg orally daily (n=4)): 0
- TEAE Appendicitis perforated grade 2 (DL7 1200 mg orally daily (n=4)): 0
- TEAE Appendicitis perforated grade 3 (DL7 1200 mg orally daily (n=4)): 1
- TEAE Appendicitis perforated grade 4 (DL7 1200 mg orally daily (n=4)): 0
- TEAE Back pain grade 1 (DL7 1200 mg orally daily (n=4)): 0
- TEAE Back pain grade 2 (DL7 1200 mg orally daily (n=4)): 0
- TEAE Back pain grade 3 (DL7 1200 mg orally daily (n=4)): 0
- TEAE Back pain grade 4 (DL7 1200 mg orally daily (n=4)): 0
- TEAE Cystitis grade 1 (DL7 1200 mg orally daily (n=4)): 0
- TEAE Cystitis grade 2 (DL7 1200 mg orally daily (n=4)): 0
- TEAE Cystitis grade 3 (DL7 1200 mg orally daily (n=4)): 0
- TEAE Cystitis grade 4 (DL7 1200 mg orally daily (n=4)): 0
- TEAE Dry skin grade 1 (DL7 1200 mg orally daily (n=4)): 0
- TEAE Dry skin grade 2 (DL7 1200 mg orally daily (n=4)): 1
- TEAE Dry skin grade 3 (DL7 1200 mg orally daily (n=4)): 0
- TEAE Dry skin grade 4 (DL7 1200 mg orally daily (n=4)): 0
- TEAE Flank pain grade 1 (DL7 1200 mg orally daily (n=4)): 0
- TEAE Flank pain grade 2 (DL7 1200 mg orally daily (n=4)): 0
- TEAE Flank pain grade 3 (DL7 1200 mg orally daily (n=4)): 0
- TEAE Flank pain grade 4 (DL7 1200 mg orally daily (n=4)): 0
- TEAE Hypertension grade 1 (DL7 1200 mg orally daily (n=4)): 0
- TEAE Hypertension grade 2 (DL7 1200 mg orally daily (n=4)): 0
- TEAE Hypertension grade 3 (DL7 1200 mg orally daily (n=4)): 0
- TEAE Hypertension grade 4 (DL7 1200 mg orally daily (n=4)): 0
- TEAE Hypotension grade 1 (DL7 1200 mg orally daily (n=4)): 0
- TEAE Hypotension grade 2 (DL7 1200 mg orally daily (n=4)): 0
- TEAE Hypotension grade 3 (DL7 1200 mg orally daily (n=4)): 0
- TEAE Hypotension grade 4 (DL7 1200 mg orally daily (n=4)): 0
- TEAE Insomnia grade 1 (DL7 1200 mg orally daily (n=4)): 0
- TEAE Insomnia grade 2 (DL7 1200 mg orally daily (n=4)): 0
- TEAE Insomnia grade 3 (DL7 1200 mg orally daily (n=4)): 0
- TEAE Insomnia grade 4 (DL7 1200 mg orally daily (n=4)): 0
- TEAE Pain in extremity grade 1 (DL7 1200 mg orally daily (n=4)): 0
- TEAE Pain in extremity grade 2 (DL7 1200 mg orally daily (n=4)): 0
- TEAE Pain in extremity grade 3 (DL7 1200 mg orally daily (n=4)): 0
- TEAE Pain in extremity grade 4 (DL7 1200 mg orally daily (n=4)): 0
- TEAE Pruritus grade 1 (DL7 1200 mg orally daily (n=4)): 1
- TEAE Pruritus grade 2 (DL7 1200 mg orally daily (n=4)): 0
- TEAE Pruritus grade 3 (DL7 1200 mg orally daily (n=4)): 0
- TEAE Pruritus grade 4 (DL7 1200 mg orally daily (n=4)): 0
- TEAE Psychiatric disorders grade 1 (DL7 1200 mg orally daily (n=4)): 0
- TEAE Psychiatric disorders grade 2 (DL7 1200 mg orally daily (n=4)): 0
- TEAE Psychiatric disorders grade 3 (DL7 1200 mg orally daily (n=4)): 0
- TEAE Psychiatric disorders grade 4 (DL7 1200 mg orally daily (n=4)): 0
- TEAE Purpura grade 1 (DL7 1200 mg orally daily (n=4)): 1
